Data: ChEMBL document CHEMBL1148832, “Rational design, structure, and biological evaluation of cyclic peptides mimicking the vascular endothelial growth factor” (J Med Chem, 2007)
pIC50: −log10 of the molar value. The source made the active and inactive calls. The calls are words filed in the database; no cut-off is given here. *1 amine or outer side, *2 acyl side, *3 side chain or, on linkers, in order; H or OH if unused. Where a SMILES comes first, the peptide text is derived from it. Bridges are numbered along the chain shown (N, C = ends). [ ]: non-standard residue; d: D form. X1 = O=C([C@H](Cc1cc(=O)oc2cc(O)ccc12)N[*:1])[*:2]; hPhe = N[C@@H](CCc1ccccc1)C(=O)O; β3hE = N[C@@H](CCC(=O)O)CC(=O)O

Legend:
[1] = tested on: HUVEC; test: Inhibition of VEGF165-induced cell migration in HUVEC at 100 uM after 6 hrs by wound healing assay; assay type: functional, cell-based; settings: Homo sapiens
[2] = target: Vascular endothelial growth factor receptor 1 (Homo sapiens, UniProt P17948); test: Displacement of biotinylated VEGF165 from human recombinant VEGFR1 by chemiluminescent assay
Chain of Vascular endothelial growth factor receptor 1 (P17948 whole entry): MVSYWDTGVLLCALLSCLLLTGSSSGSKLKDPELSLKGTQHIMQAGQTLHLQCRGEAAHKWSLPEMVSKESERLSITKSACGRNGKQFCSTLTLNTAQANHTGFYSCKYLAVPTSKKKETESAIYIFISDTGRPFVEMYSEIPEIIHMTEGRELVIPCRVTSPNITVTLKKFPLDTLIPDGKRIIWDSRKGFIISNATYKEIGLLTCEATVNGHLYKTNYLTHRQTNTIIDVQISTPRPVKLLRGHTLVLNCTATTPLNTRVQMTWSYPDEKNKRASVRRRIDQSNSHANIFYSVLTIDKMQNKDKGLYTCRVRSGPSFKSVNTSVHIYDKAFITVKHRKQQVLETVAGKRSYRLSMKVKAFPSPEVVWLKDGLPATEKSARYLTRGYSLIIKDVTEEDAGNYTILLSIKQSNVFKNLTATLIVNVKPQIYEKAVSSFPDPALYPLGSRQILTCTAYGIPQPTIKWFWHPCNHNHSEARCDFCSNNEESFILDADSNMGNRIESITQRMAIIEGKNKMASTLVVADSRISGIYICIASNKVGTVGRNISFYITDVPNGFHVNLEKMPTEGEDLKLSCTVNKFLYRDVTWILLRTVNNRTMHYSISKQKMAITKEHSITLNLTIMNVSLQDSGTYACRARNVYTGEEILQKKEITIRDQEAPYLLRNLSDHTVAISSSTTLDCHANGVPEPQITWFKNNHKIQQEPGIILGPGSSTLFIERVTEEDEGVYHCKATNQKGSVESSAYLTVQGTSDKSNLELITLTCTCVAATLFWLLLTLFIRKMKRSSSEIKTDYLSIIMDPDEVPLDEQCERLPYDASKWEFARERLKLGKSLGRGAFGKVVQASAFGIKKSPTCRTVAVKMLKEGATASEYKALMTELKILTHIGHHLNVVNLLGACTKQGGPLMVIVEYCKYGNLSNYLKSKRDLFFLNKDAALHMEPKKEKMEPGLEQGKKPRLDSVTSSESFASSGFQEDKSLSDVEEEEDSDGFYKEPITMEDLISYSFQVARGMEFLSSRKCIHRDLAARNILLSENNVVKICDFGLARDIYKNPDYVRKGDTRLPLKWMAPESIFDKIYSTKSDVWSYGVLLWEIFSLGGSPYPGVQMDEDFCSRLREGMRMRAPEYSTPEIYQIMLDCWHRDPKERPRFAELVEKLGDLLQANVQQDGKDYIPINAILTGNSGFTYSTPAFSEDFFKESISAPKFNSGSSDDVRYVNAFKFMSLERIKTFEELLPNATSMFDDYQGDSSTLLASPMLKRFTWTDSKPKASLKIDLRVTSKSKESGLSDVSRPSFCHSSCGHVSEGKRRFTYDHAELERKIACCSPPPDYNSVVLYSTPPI

| pIC50 [2] | Structure (SMILES) | Activity [1] |
| --- | --- | --- |
| – | CC(C)C[C@@H]1NC(=O)CNC(=O)[C@H](CCC(=O)O)NC(=O)[C@H](CC(=O)O)NC(=O)[C@H](Cc2ccc(O)cc2)NC(=O)[C@H](Cc2ccc(O)cc2)NC(=O)CC[C@@H](C(N)=O)NC(=O)[C@H](CCC(=O)O)NC1=O (YYDEGLEE-NH2; lactam N-8) | Active |
| 4.71 | CC(C)C[C@@H]1NC(=O)CNC(=O)[C@H](CCC(=O)O)NC(=O)[C@H](Cc2cc(=O)oc3cc(O)ccc23)NC(=O)[C@H](CCc2ccccc2)NC(=O)CC[C@@H](C(N)=O)NC(=O)[C@H](CCC(=O)O)NC1=O ([hPhe][X1]EGLEE-NH2; lactam N-7) | – |
| – | CC(C)C[C@@H]1NC(=O)CNC(=O)[C@H](CCC(=O)O)NC(=O)[C@H](Cc2cc(=O)oc3cc(O)ccc23)NC(=O)[C@H](CCc2ccccc2)NC(=O)CC[C@@H](CC(N)=O)NC(=O)[C@H](CCC(=O)O)NC1=O ([hPhe][X1]EGLE[β3hE]-NH2; lactam N-7) | Active |
